Values of other authors as cited in patent US20070141182A1, “Combination of multiple nonteroidal antiinflammatory drugs and muscle relaxants for local treatment of musculoskeletal pain” (priority 2005, published 2007).

Tests used:
[1] = 75 mg/ml in the donor gel, human skin
[2] = topical gel, 6 patients
[3] = 2.5% gel daily, 10 healthy subjects
[4] = for patient ratings of efficacy versus placebo: topical commercial forms
[5] = compared with more traditional NSAIDs
[6] = dissolved in lecithin microemulsion gel

O=C(Oc1ccccc1C(=O)O)c1ccccc1O [salsalate]
inhibition of prostaglandins (prostaglandins): only weakly inhibit prostaglandins

CC(C)(C)NCC(O)c1cc(Br)no1 (centres unmarked) [broxaterol]
flux through the skin [1]: 47 μg.h^−1 cm^−2

CC(C(=O)O)c1cccc(C(=O)c2ccccc2)c1 (centres unmarked) [ketoprofen]
ketoprofen concentration in capsular sample [2]: 2.35 µg/g
ketoprofen concentration in intra-articular adipose tissue [2]: 4.7 µg/g
ketoprofen concentration in synovial fluid [2]: 1.4 µg/g
plasma concentrations as share of the daily dose applied [3]: 2.6%
patient ratings of efficacy versus placebo [4]: superior efficacy

COc1ccc2cc(CCC(C)=O)ccc2c1 [Nabumetone]
COX-1 / COX-2 isoform selectivity of inhibition (COX-1 and COX-2): more selectively inhibit COX-2
incidence of gastric lesions [5]: lower incidence of gastric lesions

Cc1ccc(Cl)c(Nc2ccccc2C(=O)O)c1Cl [meclofenamate]
COX-1 / COX-2 isoform selectivity of inhibition (COX-1 and COX-2): inhibit both COX-1 and COX-2 equally

CC(C(=O)O)c1ccc(-c2ccccc2)c(F)c1 (centres unmarked) [Flurbiprofen, flurbiprofen]
COX-1 / COX-2 isoform selectivity of inhibition (COX-1 and COX-2): inhibit both COX-1 and COX-2 equally

CCc1cccc2c3c([nH]c12)C(CC)(CC(=O)O)OCC3 (centres unmarked) [etodolac]
COX-1 / COX-2 isoform selectivity of inhibition (COX-1 and COX-2): more selectively inhibit COX-2
incidence of gastric lesions [5]: lower incidence of gastric lesions

CS(=O)(=O)c1ccc(C2=C(c3ccccc3)C(=O)OC2)cc1 [rofecoxib]
COX-1 / COX-2 isoform selectivity of inhibition (COX-1 and COX-2): highly selective and potent inhibitors of COX-2

CN1C(C(=O)Nc2ccccn2)=C(O)c2ccccc2S1(=O)=O [Piroxicam, piroxicam]
COX-1 / COX-2 isoform selectivity of inhibition (COX-1 and COX-2): preferentially inhibit COX-1
patient ratings of efficacy versus placebo [4]: superior efficacy

magnesium choline trisalicylate
inhibition of prostaglandins (prostaglandins): only weakly inhibit prostaglandins

COc1ccc2c(c1)c(CC(=O)O)c(C)n2C(=O)c1ccc(Cl)cc1 [indomethacin]
COX-1 / COX-2 isoform selectivity of inhibition (COX-1 and COX-2): preferentially inhibit COX-1
steady-state flux [6]: about 1 μg h^−1 cm^−2
efficacy of topical versus oral administration ([4]; human, in vivo, po): as effective as therapeutic doses of oral indomethacin
patient ratings of efficacy versus placebo [4]: superior efficacy

CC(=O)Oc1ccccc1C(=O)O [ASA, acetylsalicylic acid]
decrease in pain (VAS) (oral ASA 500 mg): 15.4%
patients with a poor response (oral administration): 79%

CC(C)Cc1ccc(C(C)C(=O)O)cc1 (centres unmarked) [ibuprofen]
COX-1 / COX-2 isoform selectivity of inhibition (COX-1 and COX-2): inhibit both COX-1 and COX-2 equally
patient ratings of efficacy versus placebo [4]: superior efficacy

O=C(O)Cc1ccccc1Nc1c(Cl)cccc1Cl [diclofenac]
steady-state flux [6]: about 1 μg h^−1 cm^−2
